This is an account of results in patent US4447603A, “Substituted-6-n-propyl-8-methylimidazo[1,5-d]-as-triazin-4-(3H)-ones” (American Cyanamid Company, priority 1981, dated 1984).

Structures are written as SMILES.

The test system of the test is histamine release from immunologically stimulated human basophils. Nature of the test: inhibition of mediator (histamine) release from immunologically stimulated human basophils. In kind it is cell-based. The note with it: Leukocyte, 1 h; human basophils (leukocytes) challenged with anti-IgE or antigen, 60 minutes at 37° C.; linear regression; read-out: ED50 (the concentration in μM which causes a 50% inhibition of histamine release). The source says:
The novel compounds of this invention as well as the prior art compound, 6-n-propyl-8-methylimidazo[1,5-d]-as-triazin-4(3H)-one, have been tested by the procedure of Lichtenstein, L. M. and Osler, A. G., J. Exp. Med., 120, 507-530, (1964), which evaluates the ability of compounds to inhibit mediator (histamine) release from immunologically stimluated human basophils.
Dissolve 140.3 g. of sodium chloride, 7.45 g. of potassium chloride and 74.5 g. of Trizma-Tris Pre-Set, Reagent Grade, pH 7.6, at 25° C. (Sigma Chemical Co.) in sufficient water to give a final volume of 2 liters.
(Sigma Chemical Co.) (30 mg./ml.)
Made to 0.075 M and 0.5 M. respectively, with calcium chloride dihydrate and magnesium chloride hexahydrate.
A 10 ml. portion of 10X Tris Buffer and 1.0 ml. of human albumin are diluted to 100 ml. with water.
A 10 ml. portion of 10X Tris Buffer, 1.0 ml. of human albumin. 0.8 ml. of calcium stock and 0.2 ml. of magnesium stock are diluted to 100 ml. with water.
Behring Diagnostics (Generally used at 10 μg. protein/ml. final concentration.)
Strength 1:100 (w:v) allergenic extract, Hollister-Stier Labs. Generally this is diluted 1:1000 to 1:10,000 (considering the vial as stock).
Intradermal solutions or intramuscular preparations for hyposensitization, Hollister-Stier Labs. The final concentration used is on the order of 1 PNU/ml.
Eighty milliliters of blood is withdrawn from subjects with known histamine release to anti-IgE, ragweed antigen or other specific allergen, using four 20 ml. heparinized tubes. This 80 ml. of blood is mixed with 20 ml. of saline containing 0.6 g. of dextrose and 1.2 g. of dextran. The blood is allowed to sediment at room temperature in two 50 ml. polycarbonate centrifuge tubes until a sharp interface develops between the red cells and plasma (60-90 minutes). The plasma (top) layer from each tube is withdrawn by pipet and transferred to respective 50 ml. polycarbonate tubes. The plasma is centrifuged for 8 minutes at 110X g at […] The supernatant is carefully poured off as completely as possible and the cell button is resuspended in 2-3 ml. of Tris-A buffer using a siliconized Pasteur pipet. The resuspension is accomplished by drawing the liquid gently in and out of the pipet, with the tip below the liquid, until an even suspension of cells is obtained. Sufficient Tris-A buffer is then added to bring the volume in the tube to about 45 ml. and the tube is centrifuged at 110X g for 8 minutes at 4° C. The supernatant is poured off and the cell button is resuspended and centrifuged as described above. […]

Turning to `CCCc1nc(C)c2cn[nH]c(=O)n12` [6-n-propyl-8-methylimidazo[1,5-d]-as-triazin-4(3H)-one, reference compound], the IC50 was 87 µM. As to `CCCc1nc(C)c2c(C)n[nH]c(=O)n12` [1,8-Dimethyl-6-n-propylimidazo[1,5-d]-as-triazin-4(3H)-one], the IC50 came out at 13.1 µM. The figure for `CCCc1nc(C)c2c(CC)n[nH]c(=O)n12` [1-Ethyl-6-n-propyl-8-methylimidazo[1,5-d]-as-triazin-4(3H)-one] is 12.3 µM.

As to `CCCc1n[nH]c(=O)n2c(CCC)nc(C)c12` [1,6-Di-n-propyl-8-methylimidazo[1,5-d]-as-triazin-4(3H)-one], the IC50 was 16.1 µM.
